For one molecule, tumor sizes, tumor mass and inhibition ratio results are on record in EP2926812A1, “USE OF ARTEMETHER IN PREPARATION OF DRUG FOR TREATING LEUKEMIA” (Kunming Pharmaceutical Corp., priority 2012, dated 2014).

The assay has as its system K562 nude mice transplanted tumor. The assay can be described thus: Inhibition of growth of K562 nude mice transplanted tumor (pre-trial, experiment 1, experiment 2). In kind it is in vivo, Balb/c nude mice. To be noted: cyclophosphamide 10 ml/kg intraperitoneal; for tumor sizes: n=6; for inhibition ratio: of tumor mass. The text has this:
2.4 K562 cell: primary K562 cell is derived from bone marrow of a patient having leukemia, introduced by Blood Research Institute from abroad, stored and passaged in Pathologic Cell Bank; cultured in RPMI1640 medium (comprising 10% fetal bovine serum).
2.6 experimental animal: Balb/c nude mice, 4~5 weeks old, weight: 17~20 g, gender: half male and half female. Experimental Animal Institute of the Chinese Academy of Medical Sciences, certification number of experimental animals: SCXK (JING) 2005-0013.
3.1.1 Balb/c nude mice were subjected to 3.0Gy whole-body irradiation, after subcutaneous inoculation of primary K562 cells. About 4 weeks after inoculation, tumor masses in growing were removed and transplanted into […], and this process was repeated for 2~3 passages to establish high oncogenic K562 cell line.
3.1.2 Nude mice were subjected to 3.0Gy whole-body irradiation, after subcutaneous inoculation of the K562 cells. One week after inoculation, nude mice with visible tumors were divided into the following 4 groups each consisting of 6 animals. The following dosages were administered for 3 continuous weeks, with 7 doses per week, a total of 21 doses.
Model control group: intraperitoneal injection of 20% aqueous solution of excipient at 0.2 ml/animal.
High dosage group: intraperitoneal injection of artemether at 150 ml/kg.
Middle dosage group: intraperitoneal injection of artemether at 100 ml/kg.
Low dosage group: intraperitoneal injection of artemether at 50 ml/kg.
Nude mice were subjected to a 3.0Gy whole-body irradiation, after subcutaneous inoculation of the K562 cells. One week after inoculation, nude mice with visible tumors were divided into the following 5 groups each consisting of 6 animals. The following dosages were administered for 3 continuous weeks, with 5 doses per week, a total of 15 doses.
Positive control group: intraperitoneal injection of cyclophosphamide at 10 ml/kg.
High dosage group: intraperitoneal injection of artemether at 100 ml/kg.
Middle dosage group: intraperitoneal injection of artemether at 60 ml/kg.
Low dosage group: intraperitoneal injection of artemether at 40 ml/kg.
Nude mice were subjected to a 3.0Gy whole-body irradiation, after subcutaneous inoculation of the K562 cells. One week after inoculation, nude mice with visible tumors were divided into the following 5 groups each consisting of 6 nude mice.
Model control group: intraperitoneal injection of 20% solution of excipient at 0.2ml/animal. The dosage was administered for 3 weeks, with 7 doses per week, a total of 21 doses.
Positive control group: intraperitoneal injection of cyclophosphamide at 10 ml/kg. The dosage was administered for 3 weeks, with 7 doses per week, a total of 21 doses.
High dosage group: intraperitoneal injection of artemether at 100 ml/kg. The dosage was administered for 3 weeks, with 5 doses per week, a total of 15 doses.
Middle dosage group: intraperitoneal injection of artemether at 60 ml/kg. The dosage was administered for 3 weeks, with 7 doses per week, a total of 21 doses.
Low dosage group: intraperitoneal injection of artemether at 40 ml/kg. The dosage was administered for 3 weeks, with 7 doses per week, a total of 21 doses.

Setting [1] is: experiment 1, 15 doses, 4 weeks after inoculation.
Where [2] appears, read: experiment 2, 21 doses, 4 weeks after inoculation.

The structures appear in SMILES notation.

Regarding `O=P1(N(CCCl)CCCl)NCCCO1` (stereo not drawn) [Cyclophosphamide, cyclophosphamide], the tumor sizes is, setting by setting: (experiment 1, 15 doses in 3 weeks, 1 week after inoculation) 48.1±10.9 mm3; (experiment 1, 15 doses in 3 weeks, 2 weeks after inoculation) 104.9±60.3 mm3; (experiment 1, 15 doses in 3 weeks, 3 weeks after inoculation) 373.7±319.9 mm3; (experiment 1, 15 doses in 3 weeks, 4 weeks after inoculation) 799.0±571.3 mm3; (experiment 2, 21 doses in 3 weeks, 1 week after inoculation) 30.7±10.9 mm3; (experiment 2, 21 doses in 3 weeks, 2 weeks after inoculation) 77.3±49.8 mm3. The tumor sizes amounted to 203.1 ±94.7 mm3 (experiment 2, 21 doses in 3 weeks, 3 weeks after inoculation) and 327.0±206.8 mm3 (experiment 2, 21 doses in 3 weeks, 4 weeks after inoculation). Also, the tumor mass by setting is: under setting [1], 651.7 ± 544.3 mg; under setting [2], 241.7 ± 176.8 mg. Further, the inhibition ratio under setting [1] is given as 39.2% and the inhibition ratio under setting [2] stood at 83.3%.
